# Test results as given in patent US12173018B2, “Penicillin-binding protein inhibitors” (priority 2018, dated 2024).
# Read-outs that look alike come from different tables or passages of the source.
# Legend:
# [1] = tested on: P. aeruginosa (ΔmexAB-oprM); assay: microbe, parasite or virus in culture; type: cell-based; settings: Pseudomonas aeruginosa, read-out: MIC P. aeruginosa ΔmexAB-OprM
# How it was run: (§1)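 Following CLSI guidance, growth inhibition is measured in Mueller-Hinton broth with divalent cations. Inoculum 5×10^5 CFU/mL; incubation 16-20 hours, 37° C; endpoint is visual absence of growth.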
# P. aeruginosa ATCC 35151 = assay: microbe, parasite or virus in culture; type: cell-based; settings: Pseudomonas aeruginosa, ATCC35151; hyper-permeable P. aeruginosa ATCC 35151; read-out: MIC P. aeruginosa ATCC 35151
# How it was run: as §1
# E. coli PBP3 = E. coli PBP3 (Escherichia coli (strain K12), UniProt P0AD68); assay: E. coli PBP3 Bocillin-FL fluorescence polarization competition binding assay
# Sequence of E. coli PBP3 (P0AD68 whole entry): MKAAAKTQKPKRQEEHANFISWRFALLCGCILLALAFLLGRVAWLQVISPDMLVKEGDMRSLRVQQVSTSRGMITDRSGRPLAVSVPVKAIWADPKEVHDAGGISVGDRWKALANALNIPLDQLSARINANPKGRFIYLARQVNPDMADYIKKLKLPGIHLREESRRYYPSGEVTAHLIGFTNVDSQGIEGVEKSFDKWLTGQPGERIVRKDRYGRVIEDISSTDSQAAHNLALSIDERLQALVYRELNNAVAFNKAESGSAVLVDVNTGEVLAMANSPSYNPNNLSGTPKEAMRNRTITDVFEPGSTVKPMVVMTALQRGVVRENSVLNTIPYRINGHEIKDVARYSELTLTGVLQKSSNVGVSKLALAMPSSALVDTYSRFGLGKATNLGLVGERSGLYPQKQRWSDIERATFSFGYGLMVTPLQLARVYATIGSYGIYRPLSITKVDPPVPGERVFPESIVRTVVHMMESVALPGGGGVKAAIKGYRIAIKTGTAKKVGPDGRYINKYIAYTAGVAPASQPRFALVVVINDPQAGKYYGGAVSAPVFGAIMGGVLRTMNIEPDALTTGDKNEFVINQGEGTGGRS
# How it was run: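 Polarization at 490/520 nm was monitored for 60 minutes in pH 8.0 Hepes buffer containing 300 mM NaCl and 5% glycerol, with compound spanning 0–1000 μM.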
# P. aeruginosa PAO1 = assay: Broth microdilution MIC, P. aeruginosa PAO1; type: cell-based; settings: Pseudomonas aeruginosa; P. aeruginosa PAO1, broth microdilution; read-out: MIC P. aeruginosa PAO1
# How it was run: as §1
# A. baumannii ATCC 19606 = assay: Broth microdilution MIC, A. baumannii ATCC 19606; type: cell-based; settings: Acinetobacter baumannii, ATCC19606; A. baumannii ATCC 19606, broth microdilution; read-out: MIC A. baumannii ATCC 19606
# How it was run: as §1
# E. coli PBP1b = E. coli PBP1b (Escherichia coli (strain K12), UniProt P02919); assay: Radioligand competition binding assay with 14C-labeled boronic acid probe, PBP1b
# Sequence of E. coli PBP1b (P02919 whole entry): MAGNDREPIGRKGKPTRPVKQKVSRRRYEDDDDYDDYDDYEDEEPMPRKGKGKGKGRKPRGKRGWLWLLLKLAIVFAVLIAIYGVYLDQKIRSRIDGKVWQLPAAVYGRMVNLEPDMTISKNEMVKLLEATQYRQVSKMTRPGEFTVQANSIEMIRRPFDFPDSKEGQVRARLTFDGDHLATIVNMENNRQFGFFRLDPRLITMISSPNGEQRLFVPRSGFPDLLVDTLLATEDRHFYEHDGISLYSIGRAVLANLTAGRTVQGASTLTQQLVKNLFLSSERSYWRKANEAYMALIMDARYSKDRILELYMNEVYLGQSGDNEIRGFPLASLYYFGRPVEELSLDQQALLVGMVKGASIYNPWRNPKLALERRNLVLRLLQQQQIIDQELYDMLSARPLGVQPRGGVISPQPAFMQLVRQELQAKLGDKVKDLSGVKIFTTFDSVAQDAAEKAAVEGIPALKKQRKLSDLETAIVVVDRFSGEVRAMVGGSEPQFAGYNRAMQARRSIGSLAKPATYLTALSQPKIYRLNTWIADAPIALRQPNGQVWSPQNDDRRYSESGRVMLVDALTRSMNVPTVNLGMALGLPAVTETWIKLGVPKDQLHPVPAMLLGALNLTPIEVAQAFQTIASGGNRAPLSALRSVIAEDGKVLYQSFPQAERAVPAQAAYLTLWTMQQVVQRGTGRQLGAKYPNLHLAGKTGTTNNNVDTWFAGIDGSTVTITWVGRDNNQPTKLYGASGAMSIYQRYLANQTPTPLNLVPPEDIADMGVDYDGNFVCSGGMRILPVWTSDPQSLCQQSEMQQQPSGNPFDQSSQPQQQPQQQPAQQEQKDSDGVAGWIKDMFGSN
# [2] = fluorescence polarization competition binding with Bocillin-FL, read-out: E. coli K12 PBP3 Potency
Structure (SMILES),MIC [1] [µg/mL],MIC (P. aeruginosa ATCC 35151) [µg/mL],EC50 (E. coli PBP3) [µM],MIC (P. aeruginosa PAO1) [µg/mL],MIC (A. baumannii ATCC 19606) [µg/mL],EC50 (E. coli PBP1b) [µM],EC50 (E. coli PBP3; [2]) [µM]
"CCN1CCN(C(=O)NC(C(=O)N[C@H]2Cc3ccc(F)c(C(=O)O)c3OB2O)c2ccc(O)c(O)c2Cl)C(=O)C1=O (stereo partly drawn) [Example 124, (3R)-3-(2-(2-chloro-3,4-dihydroxyphenyl)-2-(4-ethyl-2,3-dioxopiperazine-1-carboxamido)acetamido)-7-fluoro-2-hydroxy-3,4-dihydro-2H-benzo[e][1,2]oxaborinine-8-carboxylic acid]",< 0.25,< 0.25,30 to 500,0.5 to 1,0.5 to 1,< 10,
"CCN1CCN(C(=O)NC(C(=O)N[C@H]2Cc3ccc(F)c(C(=O)O)c3OB2O)c2cc(O)c(O)cc2F)C(=O)C1=O (stereo partly drawn) [Example 136, (3R)-3-(2-(4-ethyl-2,3-dioxopiperazine-1-carboxamido)-2-(2-fluoro-4,5-dihydroxyphenyl)acetamido)-7-fluoro-2-hydroxy-3,4-dihydro-2H-benzo[e][1,2]oxaborinine-8-carboxylic acid]",0.5 to 1,0.5 to 1,,8 to 16,2 to 4,10 to 100,< 30
O=C(O)c1c(F)ccc2c1OB(O)[C@@H](NC(=O)C(NC(=O)N1CCN(CCF)C(=O)C1=O)c1ccc(O)c(O)c1Cl)C2 (stereo partly shown) [Example 131],< 0.25,< 0.25,30 to 500,0.5 to 1,8 to 16,10 to 100,
CCCN1CCN(C(=O)NC(C(=O)N[C@H]2Cc3ccc(F)c(C(=O)O)c3OB2O)c2ccc(O)c(O)c2Cl)C(=O)C1=O (stereo partly shown) [Example 125],< 0.25,< 0.25,30 to 500,0.5 to 1,< 0.25,< 10,
"CCN1CCN(C(=O)NC(C(=O)N[C@H]2Cc3ccc(F)c(C(=O)O)c3OB2O)c2ncc(O)cc2F)C(=O)C1=O (stereo partly drawn) [Example 145, (3R)-3-(2-(4-ethyl-2,3-dioxopiperazine-1-carboxamido)-2-(3-fluoro-5-hydroxypyridin-2-yl)acetamido)-7-fluoro-2-hydroxy-3,4-dihydro-2H-benzo[e][1,2]oxaborinine-8-carboxylic acid]",8 to 16,8 to 16,,> 128,> 128,> 100,< 30
"O=C(O)c1cccc2c1OB(O)[C@@H](NC(=O)C(NC(=O)N1CCN(CCF)C(=O)C1=O)c1ccc(O)c(O)c1Cl)C2 (stereo partly drawn) [Example 71, (3R)-3-(2-(2-chloro-3,4-dihydroxyphenyl)-2-(4-(2-fluoroethyl)-2,3-dioxopiperazine-1-carboxamido)acetamido)-2-hydroxy-3,4-dihydro-2H-benzo[e][1,2]oxaborinine-8-carboxylic acid]",2 to 4,0.5 to 1,,32 to 64,0.5 to 1,< 10,< 30
"CCN1CCN(C(=O)NC(C(=O)N[C@H]2Cc3ccc(Cl)c(C(=O)O)c3OB2O)c2ncc(O)cc2F)C(=O)C1=O (stereo partly drawn) [Example 216, (3R)-7-chloro-3-(2-(4-ethyl-2,3-dioxopiperazine-1-carboxamido)-2-(3-fluoro-5-hydroxypyridin-2-yl)acetamido)-2-hydroxy-3,4-dihydro-2H-benzo[e][1,2]oxaborinine-8-carboxylic acid]",32 to 64,< 0.25,,> 128,> 128,,< 30
"CC(=O)NCCN1CCN(C(=O)NC(C(=O)N[C@H]2Cc3cccc(C(=O)O)c3OB2O)c2ccc(O)c(O)c2Cl)C(=O)C1=O (stereo partly drawn) [Example 228, (3R)-3-(2-(4-(2-acetamidoethyl)-2,3-dioxopiperazine-1-carboxamido)-2-(2-chloro-3,4-dihydroxyphenyl)acetamido)-2-hydroxy-3,4-dihydro-2H-benzo[e][1,2]oxaborinine-8-carboxylic acid]",< 0.25,< 0.25,30 to 500,0.5 to 1,0.5 to 1,,
"CCN1CCN(C(=O)N[C@@H](C(=O)N[C@H]2Cc3cccc(C(=O)O)c3OB2O)c2ncc(O)cc2F)C(=O)C1=O [Example 177, (R)-3-((R)-2-(4-ethyl-2,3-dioxopiperazine-1-carboxamido)-2-(3-fluoro-5-hydroxypyridin-2-yl)acetamido)-2-hydroxy-3,4-dihydro-2H-benzo[e][1,2]oxaborinine-8-carboxylic acid]",2 to 4,0.5 to 1,,> 128,> 128,,< 30
"C[C@H]1CN(CCO)C(=O)C(=O)N1C(=O)NC(C(=O)N[C@H]1Cc2cccc(C(=O)O)c2OB1O)c1ccc(O)c(O)c1Cl (stereo partly drawn) [Example 224, (3R)-3-(2-(2-chloro-3,4-dihydroxyphenyl)-2-((S)-4-(2-hydroxyethyl)-6-methyl-2,3-dioxopiperazine-1-carboxamido)acetamido)-2-hydroxy-3,4-dihydro-2H-benzo[e][1,2]oxaborinine-8-carboxylic acid]",0.5 to 1,< 0.25,30 to 500,8 to 16,< 0.25,,
"NCCN1CCN(C(=O)N[C@@H](C(=O)N[C@H]2Cc3ccc(F)c(C(=O)O)c3OB2O)c2ccc(O)c(O)c2Cl)C(=O)C1=O [Example 227, (R)-3-((R)-2-(4-(2-aminoethyl)-2,3-dioxopiperazine-1-carboxamido)-2-(2-chloro-3,4-dihydroxyphenyl)acetamido)-7-fluoro-2-hydroxy-3,4-dihydro-2H-benzo[e][1,2]oxaborinine-8-carboxylic acid]",< 0.25,< 0.25,30 to 500,< 0.25,< 0.25,,
